Source: patent US5330897A, “Sialic acid binding lectin of protozoan origin” (South Alabama Medical Science Foundation, priority 1992, dated 1994)

Tests used:
[1] = system: T. mobilensis cell-free lysate hemagglutinin; experiment: Inhibition of HA activity of T. mobilensis cell-free lysate; format: biochemical, Tritrichomonas mobilensis
[2] = system: T. foetus cell-free lysate hemagglutinin; experiment: Inhibition of HA activity of T. foetus cell-free lysate; format: biochemical, Tritrichomonas foetus
[3] = system: T. augusta cell-free lysate hemagglutinin; experiment: Inhibition of HA activity of T. augusta cell-free lysate; format: biochemical, Tritrichomonas augusta
T. mobilensis lectin = experiment: Inhibition of T. mobilensis lectin-mediated hemagglutination; format: biochemical, Tritrichomonas mobilensis; conditions: for Minimal Inhibitory Conc.: 2 units of hemagglutinin
live T. mobilensis = experiment: Slide agglutination of live T. mobilensis by lectins; format: cell-based, Tritrichomonas mobilensis; conditions: carbohydrate 100 mM
Description: Agglutination of live T. mobilensis with lectins with various carbohydrate binding specificities was performed by a slide agglutination assay. Lectin Kit LK-2000 (Vector Laboratories) consisted of the following lectins: concanavalin A (ConA), wheat germ agglutinin (WGA), soybean agglutinin (SBA), gorse seed agglutinin (UEA-1), castor bean agglutinin type 1 (RCA-1), peanut agglutinin (PNA), and horse gram agglutinin (DBA). Limulus polyphemus lectin (LPA) was obtained from Sigma, and Limax flavus (LFA) agglutinin from EY Labs. Lectins and specific carbohydrates were dissolved in buffers recommended by the manufacturers. Twenty five μl of washed T. mobilensis (about 2×10^7 /ml) were placed onto a glass slide. An equal volume of lectin (200 μg/ml) or lectin with specific carbohydrate (final concentration, 100 mM) was added. After mixing for 2 to 3 min, the agglutination was evaluated under a microscope.

live cells of T. foetus = experiment: Inhibition of HA by live cells of T. foetus; format: cell-based, Tritrichomonas foetus
[4] = system: T. mobilensis hemolysis of erythrocytes; experiment: Whole organism hemolysis assay, inhibition; format: cell-based, Tritrichomonas mobilensis
Source text: Tritrichomonas mobilensis, an enteric parasite of squirrel monkeys, adheres readily to isolated monkey intestinal epithelial cells and agglutinates human erythrocytes in vitro. These activities are mediated by a sialic acid binding lectin. Hemagglutination by either parasites or purified lectin is inhibited by N-acetylneuraminic acid and anti-lectin monoclonal antibody (MAB), but not by 2,3-dehydro-2-desoxy-N-acetylneuraminic acid, a neuraminidase inhibitor. T. mobilensis hemolyzes erythrocytes in a modification of a previously published whole organism hemolysis assay. Hemolysis is inhibited by N-acetylneuraminic acid, 2,3-dehydro-2-desoxy-N-acetylneuraminic acid, anti-lectin MAB, T. mobilensis lectin and other sialic acid binding lectins, fetuin, and colominic acid, but not by asialofetuin, or leupeptin. Desialated erythrocytes are neither agglutinated nor hemolyzed.

O=C(CO)[C@@H](O)[C@H](O)[C@H](O)CO [D-fructose]
Conc. required to inhibit 2 HA units, T. mobilensis ([1]; carbohydrates, […]): > 200 µg/mL
Conc. required to inhibit 2 HA units, T. foetus ([2]; carbohydrates, […]): > 200 µg/mL
Conc. required to inhibit 2 HA units, T. augusta ([3]; carbohydrates, […]): > 200 µg/mL
Minimal Inhibitory Conc. (T. mobilensis lectin; carbohydrates): > 100 mM

O=P(O)(O)OC1O[C@H](CO)[C@@H](O)[C@H](O)[C@@H]1O (stereo partly shown) [mannose-1-phosphate]
Minimal Inhibitory Conc. (T. mobilensis lectin; carbohydrates): > 100 mM

COC(=O)C1(OC)CC(O)C(NC(C)=O)C(C(O)C(O)CO)O1 (stereo not drawn) [N-acetylneuraminic acid methyl ester, β-methyl glycoside]
Minimal Inhibitory Conc. (T. mobilensis lectin; carbohydrates): > 100 mM

CC(=O)N[C@H]1C(O)O[C@H](CO)[C@H](O)[C@@H]1O (stereo partly shown) [N-acetylgalactosamine]
Conc. required to inhibit 2 HA units, T. mobilensis ([1]; carbohydrates, […]): > 200 µg/mL
Conc. required to inhibit 2 HA units, T. foetus ([2]; carbohydrates, […]): > 200 µg/mL
Conc. required to inhibit 2 HA units, T. augusta ([3]; carbohydrates, […]): > 200 µg/mL
Minimal Inhibitory Conc. (T. mobilensis lectin; carbohydrates): > 100 mM
Effect of specific carbohydrate on agglutinating activity of the appropriate lectin (live T. mobilensis): abolished agglutinating activity

Avidin: glycoprotein or protein tested as inhibitor
Minimal Inhibitory Conc. (T. mobilensis lectin; glycoproteins or proteins): > 1000 µg/mL

OC[C@H]1OC(O)[C@H](O)[C@@H](O)[C@@H]1O (stereo partly drawn) [D-glucose]
Conc. required to inhibit 2 HA units, T. mobilensis ([1]; carbohydrates, […]): > 200 µg/mL
Conc. required to inhibit 2 HA units, T. foetus ([2]; carbohydrates, […]): > 200 µg/mL
Conc. required to inhibit 2 HA units, T. augusta ([3]; carbohydrates, […]): > 200 µg/mL
Minimal Inhibitory Conc. (T. mobilensis lectin; carbohydrates): > 100 mM

GD1A
Inhibition of hemagglutination by gangliosides (T. mobilensis lectin; at mg/ml concentrations): did not inhibit

Bovine Albumin: glycoprotein or protein tested as inhibitor
Minimal Inhibitory Conc. (T. mobilensis lectin; glycoproteins or proteins): > 1000 µg/mL

Egg Albumin: glycoprotein or protein tested as inhibitor
Minimal Inhibitory Conc. (T. mobilensis lectin; glycoproteins or proteins): > 1000 µg/mL

CC(=O)NC1C(O)CC(OCC2OC(OC3C(CO)OC(O)C(O)C3O)C(O)C(O)C2O)(C(=O)O)OC1C(O)C(O)CO (stereo not shown) [6'-sialyllactose]
Minimal Inhibitory Conc. (T. mobilensis lectin; carbohydrates): 1.0 mM

OC1OC[C@@H](O)[C@H](O)[C@H]1O (stereo partly drawn) [D-xylose]
Conc. required to inhibit 2 HA units, T. mobilensis ([1]; carbohydrates, […]): > 200 µg/mL
Conc. required to inhibit 2 HA units, T. foetus ([2]; carbohydrates, […]): > 200 µg/mL
Conc. required to inhibit 2 HA units, T. augusta ([3]; carbohydrates, […]): > 200 µg/mL
Minimal Inhibitory Conc. (T. mobilensis lectin; carbohydrates): > 100 mM

O=C(O)[C@H]1OC(O)[C@H](O)[C@@H](O)[C@H]1O (stereo partly drawn) [D-galacturonic acid]
Minimal Inhibitory Conc. (T. mobilensis lectin; carbohydrates): > 100 mM

OC[C@H]1OC(O)[C@@H](O)[C@@H](O)[C@@H]1O (stereo partly drawn) [D-mannose]
Conc. required to inhibit 2 HA units, T. mobilensis ([1]; carbohydrates, […]): > 200 µg/mL
Conc. required to inhibit 2 HA units, T. foetus ([2]; carbohydrates, […]): > 200 µg/mL
Conc. required to inhibit 2 HA units, T. augusta ([3]; carbohydrates, […]): > 200 µg/mL
Minimal Inhibitory Conc. (T. mobilensis lectin; carbohydrates): > 100 mM
Effect of specific carbohydrate on agglutinating activity of the appropriate lectin (live T. mobilensis): abolished agglutinating activity

CC(=O)N[C@H]1[C@@H](O)[C@H](O)[C@@H](CO)O[C@H]1O [N-acetyl-β-D-mannosamine]
Minimal Inhibitory Conc. (T. mobilensis lectin; carbohydrates): > 100 mM

CC(=O)N[C@H]1[C@H](O[C@H]2[C@H](O)[C@@H](NC(C)=O)C(O)O[C@@H]2CO)O[C@H](CO)[C@@H](O)[C@@H]1O (stereo partly shown) [N,N-diacetyl chitobiose]
Minimal Inhibitory Conc. (T. mobilensis lectin; carbohydrates): > 100 mM

OC[C@H]1O[C@@](CO)(O[C@H]2O[C@H](CO)[C@@H](O)[C@H](O)[C@H]2O)[C@@H](O)[C@@H]1O [Sucrose]
Conc. required to inhibit 2 HA units, T. mobilensis ([1]; carbohydrates, […]): > 200 µg/mL
Conc. required to inhibit 2 HA units, T. foetus ([2]; carbohydrates, […]): > 200 µg/mL
Conc. required to inhibit 2 HA units, T. augusta ([3]; carbohydrates, […]): > 200 µg/mL
Minimal Inhibitory Conc. (T. mobilensis lectin; carbohydrates): > 100 mM

C[C@H]1OC(O)[C@H](O)[C@@H](O)[C@H]1O (stereo partly drawn) [D-fucose]
Conc. required to inhibit 2 HA units, T. mobilensis ([1]; carbohydrates, […]): > 200 µg/mL
Conc. required to inhibit 2 HA units, T. foetus ([2]; carbohydrates, […]): > 200 µg/mL
Conc. required to inhibit 2 HA units, T. augusta ([3]; carbohydrates, […]): > 200 µg/mL
Minimal Inhibitory Conc. (T. mobilensis lectin; carbohydrates): > 100 mM
Effect of specific carbohydrate on agglutinating activity of the appropriate lectin (live T. mobilensis): abolished agglutinating activity

OC1OC[C@@H](O)[C@@H](O)[C@@H]1O (stereo partly drawn) [D-arabinose]
Conc. required to inhibit 2 HA units, T. mobilensis ([1]; carbohydrates, […]): > 200 µg/mL
Conc. required to inhibit 2 HA units, T. foetus ([2]; carbohydrates, […]): > 200 µg/mL
Conc. required to inhibit 2 HA units, T. augusta ([3]; carbohydrates, […]): > 200 µg/mL
Minimal Inhibitory Conc. (T. mobilensis lectin; carbohydrates): > 100 mM

Bovine submaxillary mucin
Conc. required to inhibit 2 HA units, T. mobilensis ([1]; sialoglycoproteins): 60 µg/mL
Conc. required to inhibit 2 HA units, T. foetus ([2]; sialoglycoproteins): 60 µg/mL
Conc. required to inhibit 2 HA units, T. augusta ([3]; sialoglycoproteins): 40 µg/mL
Minimal Inhibitory Conc. (T. mobilensis lectin; glycoproteins or proteins): 0.65 µg/mL
Conc. required to Inhibit 2 HA Units (live cells of T. foetus): 125 µg/mL

Fibronectin
Minimal Inhibitory Conc. (T. mobilensis lectin; glycoproteins or proteins): > 333 µg/mL

colominic acid
Inhibition of hemolysis [4]: inhibited

O=P(O)(O)OC[C@H]1OC(O)[C@@H](O)[C@@H](O)[C@@H]1O (stereo partly shown) [Mannose-6-phosphate]
Minimal Inhibitory Conc. (T. mobilensis lectin; carbohydrates): > 100 mM

CC(=O)N[C@H]1C(O)O[C@H](CO)[C@@H](O)[C@@H]1O (stereo partly shown) [N-acetylglucosamine]
Conc. required to inhibit 2 HA units, T. mobilensis ([1]; carbohydrates, […]): > 200 µg/mL
Conc. required to inhibit 2 HA units, T. foetus ([2]; carbohydrates, […]): > 200 µg/mL
Conc. required to inhibit 2 HA units, T. augusta ([3]; carbohydrates, […]): > 200 µg/mL
Minimal Inhibitory Conc. (T. mobilensis lectin; carbohydrates): > 100 mM
Effect of specific carbohydrate on agglutinating activity of the appropriate lectin (live T. mobilensis): abolished agglutinating activity

glucuronic acid
Minimal Inhibitory Conc. (T. mobilensis lectin; carbohydrates): > 100 mM

CC(=O)NC1C(O)CC(OC2C(O)C(CO)OC(OC3C(CO)OC(O)C(O)C3O)C2O)(C(=O)O)OC1C(O)C(O)CO (stereo not shown) [3'-sialyllactose]
Minimal Inhibitory Conc. (T. mobilensis lectin; carbohydrates): 2.0 mM

Orosomucoid: sialoconjugate (sialoglycoprotein)
Conc. required to inhibit 2 HA units, T. mobilensis ([1]; sialoglycoproteins): 150 µg/mL
Conc. required to inhibit 2 HA units, T. foetus ([2]; sialoglycoproteins): 150 µg/mL
Conc. required to inhibit 2 HA units, T. augusta ([3]; sialoglycoproteins): 150 µg/mL
Conc. required to Inhibit 2 HA Units (live cells of T. foetus): 500 µg/mL

Laminin
Minimal Inhibitory Conc. (T. mobilensis lectin; glycoproteins or proteins): 6.8 µg/mL

Lysozyme: glycoprotein or protein tested as inhibitor
Minimal Inhibitory Conc. (T. mobilensis lectin; glycoproteins or proteins): > 1000 µg/mL

COC1(C(=O)O)CC(O)C(NC(C)=O)C(C(O)C(O)CO)O1 (stereo not drawn) [N-acetylneruaminic acid β-methyl glycoside]
Minimal Inhibitory Conc. (T. mobilensis lectin; carbohydrates): > 100 mM

OC[C@H]1OC(O)[C@H](O)[C@@H](O)[C@H]1O (stereo partly drawn) [D-galactose]
Conc. required to inhibit 2 HA units, T. mobilensis ([1]; carbohydrates, […]): > 200 µg/mL
Conc. required to inhibit 2 HA units, T. foetus ([2]; carbohydrates, […]): > 200 µg/mL
Conc. required to inhibit 2 HA units, T. augusta ([3]; carbohydrates, […]): > 200 µg/mL
Minimal Inhibitory Conc. (T. mobilensis lectin; carbohydrates): > 100 mM
Effect of specific carbohydrate on agglutinating activity of the appropriate lectin (live T. mobilensis): abolished agglutinating activity

OC[C@H]1O[C@H](O[C@H]2[C@H](O)[C@@H](O)C(O)O[C@@H]2CO)[C@H](O)[C@@H](O)[C@@H]1O (mixture of isomers) [Maltose]
Minimal Inhibitory Conc. (T. mobilensis lectin; carbohydrates): > 100 mM

CC(=O)N[C@H]1C(O)O[C@H](CO)[C@@H](O)[C@@H]1O[C@H](C)C(=O)O (stereo partly shown) [N-acetylmuramic acid]
Minimal Inhibitory Conc. (T. mobilensis lectin; carbohydrates): > 100 mM

B1: Glycophorin: a major sialoglycoprotein of erythrocyte membranes (protein, UniProt P02724 20-150, looked up)
Glycophorin-A: LSTTEVAMHTSTSSSVTKSYISSQTNDTHKRDTYAATPRAHEVSEISVRTVYPPEEETGERVQLAHHFSEPEITLIIFGVMAGVIGTILLISYGIRRLIKKSPSDVKPLPSPDTDVPLSSVEIENPETSDQ
Conc. required to inhibit 2 HA units, T. mobilensis ([1]; sialoglycoproteins): 10 µg/mL
Conc. required to inhibit 2 HA units, T. foetus ([2]; sialoglycoproteins): 10 µg/mL
Conc. required to inhibit 2 HA units, T. augusta ([3]; sialoglycoproteins): 10 µg/mL
Minimal Inhibitory Conc. (T. mobilensis lectin; glycoproteins or proteins): 0.42 µg/mL
Conc. required to Inhibit 2 HA Units (live cells of T. foetus): 10 µg/mL

B2: Asialoglycophorin: glycophorin lacking the sialic acid (protein, UniProt P02724 20-150, looked up)
Glycophorin-A: B1 Glycophorin-A
modifications: desialylated
notes: glycophorin lacking the sialic acid
Conc. required to inhibit 2 HA units, T. mobilensis ([1]; sialoglycoproteins): 500 µg/mL
Conc. required to inhibit 2 HA units, T. foetus ([2]; sialoglycoproteins): 500 µg/mL
Conc. required to inhibit 2 HA units, T. augusta ([3]; sialoglycoproteins): 500 µg/mL
Minimal Inhibitory Conc. (T. mobilensis lectin; glycoproteins or proteins): 83.3 µg/mL
Conc. required to Inhibit 2 HA Units (live cells of T. foetus): 500 µg/mL

B3: Asialofetuin: asialo- analog of fetuin (protein, UniProt P12763 19-359, looked up)
Alpha-2-HS-glycoprotein: IPLDPVAGYKEPACDDPDTEQAALAAVDYINKHLPRGYKHTLNQIDSVKVWPRRPTGEVYDIEIDTLETTCHVLDPTPLANCSVRQQTQHAVEGDCDIHVLKQDGQFSVLFTKCDSSPDSAEDVRKLCPDCPLLAPLNDSRVVHAVEVALATFNAESNGSYLQLVEISRAQFVPLPVSVSVEFAVAATDCIAKEVVDPTKCNLLAEKQYGFCKGSVIQKALGGEDVRVTCTLFQTQPVIPQPQPDGAEAEAPSAVPDAAGPTPSAAGPPVASVVVGPSVVAVPLPLHRAHYDLRHTFSGVASVESSSGEAFHVGKTPIVGQPSIPGGPVRLCPGRIRYFKI
modifications: desialylated
notes: asialo- analog of fetuin
Minimal Inhibitory Conc. (T. mobilensis lectin; glycoproteins or proteins): 26.0 µg/mL
